Measured values published in article PMC3794980, “Identification of Conserved and HLA Promiscuous DENV3 T-Cell Epitopes” (PLoS Neglected Tropical Diseases, 2013).
Read-outs that look alike come from different tables or passages of the source.

How the values were obtained:
Test in all cases: biochemical
Format in all cases: binding
DRB1*1302 = DRB1*1302 (Homo sapiens, UniProt P01903+P01911, A100E/A169T/K41T/L162R/M171V/P40S/Q125H/Q178H/Q39Y/Q99D/R42S/S66N/T262R/V115G/W38E/Y61H)
DRB5*0101 = DRB5*0101 (Homo sapiens, UniProt P01903+Q30154)
DRB1*0301 = DRB1*0301 (Homo sapiens, UniProt P01903+P01911, A100K/A102G/A103R/A169T/F55Y/I96L/K41T/L162R/M171V/P40S/Q125H/Q178H/Q39Y/R42S/S66N/T106N/T262R/W38E/Y61H)
DRB1*0701 = DRB1*0701 (Homo sapiens, UniProt P01903+P01911, A100R/A102G/A103Q/D57E/D86V/E43K/F76Y/K127E/L162R/M171V/P40G/Q125H/Q99D/R33Q/R42Y/R54Q/S133A/S66F/T210M/V115G/Y107V/Y59L/Y89S)
DRB1*1501 = DRB1*1501 (Homo sapiens, UniProt P01903+P01911)
DRB3*0101 = DRB3*0101 (Homo sapiens, UniProt P01903+P79483)
DRB1*0404 = DRB1*0404 (Homo sapiens, UniProt P01903+P01911, A100R/A169T/F76Y/I96L/K127E/L162R/M171V/N62H/P40V/Q125Y/R42H/S133A/S149N/S66Y/V209L/W38E)
DRB1*0405 = DRB1*0405 (Homo sapiens, UniProt P01903+P01911, A100R/A169T/D86S/F76Y/I96L/K127E/L162R/M171V/N62H/P40V/Q125Y/R42H/S133A/S149N/S66Y/V115G/V209L/W38E)
DRB1*1101 = DRB1*1101 (Homo sapiens, UniProt P01903+P01911, A100R/A169T/A87E/I96F/K41T/L162R/M171V/P40S/Q125H/Q178H/Q39Y/Q99D/R42S/S66Y/T262R/V115G/W38E)
DRB1*0401 = DRB1*0401 (Homo sapiens, UniProt P01903+P01911, A100K/A169T/F76Y/I96L/K127E/L162R/M171V/N62H/P40V/Q125Y/R42H/S133A/S149N/S66Y/V115G/V209L/W38E)
DRB1*0901 = DRB1*0901 (Homo sapiens, UniProt P01903+P01911, A100R/A103E/D57H/D86V/F55Y/F60I/F76Y/I96F/K127E/L162R/M171V/P40D/Q125H/Q99R/R33Q/R42F/S133A/S66N/T210M/V115G/W38K/Y107V/Y59G/Y89S)
DRB1*0101 = DRB1*0101 (Homo sapiens, UniProt P01903+P01911, A100R/D57E/F55L/F60I/F76Y/I96L/L162R/M171V/P40L/Q125E/R42F/V115G/Y59C)
DRB1*0802 = DRB1*0802 (Homo sapiens, UniProt P01903+P01911, A100R/A103L/A169T/F76Y/H45Y/I96F/K41T/L162R/M171V/P40S/Q125H/Q178H/Q39Y/Q99D/R218S/R42G/S66Y/V115G/W38E)
DRB4*0101 = DRB4*0101 (Homo sapiens, UniProt P01903+P13762, G164S)
[1] = competitive inhibition of radiolabeled standard peptide, '-' distinct from ND, read-out: Binding Affinity (nM) DRB1*1302
[2] = competitive inhibition of radiolabeled standard peptide, '-' distinct from ND, read-out: Binding Affinity (nM) DRB1*0901

Sequence of DRB1*1302 (P01903 26-254 limits assumed, other chains not shown): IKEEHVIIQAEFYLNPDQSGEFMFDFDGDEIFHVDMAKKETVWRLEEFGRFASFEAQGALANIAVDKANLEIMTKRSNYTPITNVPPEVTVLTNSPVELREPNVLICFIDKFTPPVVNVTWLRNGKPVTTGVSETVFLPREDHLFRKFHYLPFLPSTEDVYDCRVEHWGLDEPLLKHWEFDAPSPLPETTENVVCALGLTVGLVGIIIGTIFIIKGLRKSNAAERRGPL
Sequence of DRB1*0301 (P01903 26-254, other chains not shown): as the sequence (P01903 26-254 limits assumed, other chains not shown) above
Sequence of DRB1*1101 (P01903 26-254, other chains not shown): as the sequence (P01903 26-254 limits assumed, other chains not shown) above

| SMILES | IC50 (DRB1*1302; [1]) [nM] | IC50 (DRB5*0101) [nM] | IC50 (DRB1*0301) [nM] | IC50 (DRB1*0701) [nM] | IC50 (DRB1*1501) [nM] | IC50 (DRB3*0101) [nM] | IC50 (DRB1*0404) [nM] | IC50 (DRB1*0405) [nM] | IC50 (DRB1*1101) [nM] | IC50 (DRB1*0401) [nM] | IC50 (DRB1*0901; [2]) [nM] | IC50 (DRB1*0101) [nM] | IC50 (DRB1*1302) [nM] | IC50 (DRB1*0901) [nM] | IC50 (DRB1*0802) [nM] | IC50 (DRB4*0101) [nM] | IC50 (DRB1*0901; competitive inhibition of radiolabeled standard peptide, DRB1*0901, read-out: Binding Affinity (nM) DRB1*0901) [nM] |
| --- | --- | --- | --- | --- | --- | --- | --- | --- | --- | --- | --- | --- | --- | --- | --- | --- | --- |
| CC[C@H](C)[C@H](NC(=O)[C@H](CCCCN)NC(=O)[C@H](C)NC(=O)[C@H](CCCCN)NC(=O)CNC(=O)[C@H](Cc1c[nH]c2ccccc12)NC(=O)[C@@H](N)[C@@H](C)O)C(=O)N[C@H](C(=O)N[C@H](C(=O)N[C@@H](C)C(=O)N[C@@H](CCC(=O)O)C(=O)N[C@H](C(=O)N[C@@H](CCC(N)=O)C(=O)N[C@@H](CC(N)=O)C(=O)N[C@@H](CO)C(=O)O)[C@@H](C)O)[C@@H](C)O)C(C)C [NS1 117-131] | 1240 | 3930 | 4160 | 6690 | 3750 | 534 | 695 | 285 | 18200 | 28 | 2630 | 1090 | – | – | – | – | – |
| CC[C@H](C)[C@H](NC(=O)[C@H](CCC(=O)O)NC(=O)CNC(=O)[C@@H](NC(=O)[C@@H](NC(=O)[C@@H](NC(=O)[C@H](CCC(N)=O)NC(=O)[C@H](Cc1ccccc1)NC(=O)[C@@H](NC(=O)CNC(=O)[C@@H]1CCCN1C(=O)[C@H](CCSC)NC(=O)[C@@H](NC(=O)[C@H](CCC(N)=O)NC(=O)[C@@H](N)Cc1ccccc1)[C@@H](C)O)[C@@H](C)O)[C@@H](C)O)[C@@H](C)O)[C@@H](C)O)C(=O)O [NS3 109-123] | – | 2750 | 16400 | 1020 | 2180 | 4140 | 961 | – | 3860 | 222 | – | 148 | 7040 | 1850 | 557 | – | – |
| CC[C@H](C)[C@H](NC(=O)[C@@H]1CCCN1C(=O)[C@H](CC(C)C)NC(=O)CNC(=O)[C@@H](N)CCCCN)C(=O)N[C@@H](CCCNC(=N)N)C(=O)N[C@@H](Cc1ccc(O)cc1)C(=O)N[C@@H](CCC(N)=O)C(=O)N[C@H](C(=O)N[C@H](C(=O)N[C@@H](C)C(=O)N[C@H](C(=O)N[C@@H](CCCCN)C(=O)N[C@@H](CO)C(=O)N[C@@H](CCC(=O)O)C(=O)O)[C@@H](C)O)[C@@H](C)O)[C@@H](C)O [NS3 237-251] | 2620 | 13 | 1820 | 2990 | 638 | 19000 | 310 | – | 807 | 13 | 928 | 110 | – | – | 36 | 5.5 | – |
| CC[C@H](C)[C@H](NC(=O)[C@H](C)NC(=O)[C@H](C)NC(=O)[C@H](C)NC(=O)[C@@H](N)CCC(=O)O)C(=O)N[C@@H](Cc1ccccc1)C(=O)N[C@@H](CCSC)C(=O)N[C@H](C(=O)N[C@@H](C)C(=O)N[C@H](C(=O)N1CCC[C@H]1C(=O)N1CCC[C@H]1C(=O)NCC(=O)N[C@H](C(=O)N[C@@H](C)C(=O)O)[C@@H](C)O)[C@@H](C)O)[C@@H](C)O [NS3 309-323] | – | 2520 | – | 48 | 363 | 11700 | 350 | 32 | 93 | 2.4 | – | 27 | 2640 | 129 | 31 | 9.2 | – |
| CSCC[C@H](NC(=O)[C@H](CCC(N)=O)NC(=O)[C@H](C)NC(=O)[C@H](Cc1ccc(O)cc1)NC(=O)[C@H](C)NC(=O)[C@H](CCCCN)NC(=O)CNC(=O)[C@H](CC(C)C)NC(=O)[C@H](CS)NC(=O)[C@H](C)NC(=O)[C@@H](NC(=O)[C@H](CCC(=O)O)NC(=O)[C@H](CCCNC(=N)N)NC(=O)[C@H](CC(C)C)NC(=O)[C@@H](N)CO)[C@@H](C)O)C(=O)N[C@@H](Cc1c[nH]c2ccccc12)C(=O)N[C@H](C(=O)O)[C@@H](C)O [NS5 747-763] | – | – | 5740 | 2980 | 167 | 8310 | 111 | 39 | 80 | – | – | 54 | – | – | 551 | 4660 | 393 |
